# Experimental data reported in PubChem BioAssay (NCI).
# Values joined by “and” are separate entries in the source; they are usually repeats but may differ in a detail not shown here. Equal entries are not always repeated.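 Following 48 hours of exposure in 96-well plates, responses at five concentrations were used to interpolate endpoints linearly. GI50: concentration for 50% inhibition of growth. The concentration for full growth arrest is given as TGI.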
# Tested on: MDA-MB-468 breast
# Assay: NCI-60 cell line screen, 48 h
Structure (SMILES),GI50,TGI
COc1ccc(F)c(F)c1C(=O)c1cnc(NC2CCN(S(C)(=O)=O)CC2)nc1N,1370 nM and 687 nM,3540 nM and 2700 nM
CC(C)[O-].CC(C)[O-].CN(CCN(C)Cc1cc(F)cc(F)c1[O-])Cc1cc(F)cc(F)c1[O-].[Ti+4],542 nM,2880 nM
O=C(c1cccs1)C1NO[N+]([O-])=C1c1cccs1 (stereo not drawn),1690 nM,3380 nM
Fc1ccc2nc(-c3cc(-c4ccc5c(c4)OCO5)n[nH]3)[nH]c2c1,3580 nM,> 80800 nM
CC(=Nc1ccc(S(N)(=O)=O)cc1)c1c(O)[nH]c2ccccc12,> 25000 nM,> 25000 nM
CC(C)(C)c1ccc(C(=O)Nc2sc3c(c2C(N)=O)CCC(O)C3)cc1 (stereo not drawn),3010 nM,12600 nM
CCOC(=O)N1CCN(CCCCCOc2ccccc2C2CCCCC2)CC1,2410 nM,8460 nM
OCc1ccc(N2CCOCC2)cc1Cl,732 nM,3100 nM
COc1ccc(C(=O)c2nc3ccccc3n2CC(=O)c2ccc(Cl)cc2)cc1,2080 nM,11500 nM
CCOc1ccc(Nc2c3ccccc3nc3ccccc23)cc1,258 nM and 325 nM,987 nM and 2320 nM
COc1cccc2c(=O)c3c(sc12)c(NCCCNCCO)nc1ccccc13,1530 nM,3130 nM
c1ccc(-c2nc(N3CCCNCC3)c3nc(-c4ccccc4)oc3n2)cc1,1720 nM,3370 nM
O=C(/C=C/c1cccc(O)c1)c1cccc(-n2cc(-c3ccc4ccccc4c3)[nH]c2=O)c1,2860 nM,12800 nM
Clc1ccc2c(c1)N(c1ncnc3ccc(-c4cnc5[nH]ncc5c4)cc13)CC2,217 nM,1470 nM
COc1ccc(-c2cnoc2-c2cc(OC)c3c(c2)OCCO3)cc1,29.6 nM,1030 nM
CCCCCCCCCCCCCC[n+]1cccc(C(N)=O)c1,567 nM,2560 nM
CCn1c(-c2nonc2N)nc2ccncc21,> 25000 nM,> 25000 nM
O=[N+]([O-])c1ccc(-c2cc3c(Nc4ccc(Cl)c(C(F)(F)F)c4)ncnc3s2)cc1,1640 nM,6030 nM
CC(C)Oc1ccc(C(=O)Cn2ccnc2)cc1-n1c(CN2CCN(C(=O)COc3ccc(Cl)cc3)CC2)nc2ccccc2c1=O,9950 nM,35900 nM
CCNCCNc1cc(-c2ccc(C#N)cc2)c(C#N)c2nc3ccccc3n12,1790 nM,4150 nM
Clc1nncc2sc(-c3ccccc3)nc12,14400 nM,69500 nM
CN(C)S(=O)(=O)c1oc(-c2ccccc2)nc1C#N,12300 nM,32900 nM
[2H]c1nc(=Nc2cc(NC(=O)C=C)c(N(C)CCN(C)C)cc2OC)[nH]c(-c2cn(C([2H])([2H])[2H])c3ccccc23)c1[2H],28.8 nM,957 nM
Nn1c(=O)n(-c2cccc(C(F)(F)F)c2)c(=O)c2cc(-c3ccc(F)cc3F)ccc21,1990 nM,6210 nM
